This is an account of results in patent publication US12371454B2, “Cyclic peptide compound having Kras inhibitory action” (priority 2019, dated 2025).

By IC50 is commonly meant the midpoint of a concentration-inhibition curve.

Molecules are shown by their SMILES. Starred links: 1 amine or outer side, 2 acyl side, 3 side chain; linkers in the order of their positions; H or OH if unused. Positions of bridges follow the written chain, without caps; N, C: chain ends. Non-standard residues stand in square brackets, D forms with d. Residues, ends and D or L forms follow the SMILES beside them. *: point of attachment. hPhe(3-Cl-4-CF3) = N[C@@H](CCc1ccc(C(F)(F)F)c(Cl)c1)C(=O)O; NMePhe(4-CF3) = CN[C@@H](Cc1ccc(C(F)(F)F)cc1)C(=O)O; X39 = COc1ccc(C[C@@H](C(=O)[*:2])N(C)[*:1])cn1; NMeAbu(4,4,4-F3) = CN[C@@H](CC(F)(F)F)C(=O)O; NMePhe(4-Me) = CN[C@@H](Cc1ccc(C)cc1)C(=O)O; NMePhe(2-Cl) = CN[C@@H](Cc1ccccc1Cl)C(=O)O; NMeGly(cPent) = CN[C@H](C(=O)O)C1CCCC1; Phe(2-Cl) = N[C@@H](Cc1ccccc1Cl)C(=O)O; Phe(3-I) = N[C@@H](Cc1cccc(I)c1)C(=O)O; Pro(4,4-F2) = O=C(O)[C@@H]1CC(F)(F)CN1; NMeCha = CN[C@@H](CC1CCCCC1)C(=O)O; NMeGly(cPr) = CN[C@H](C(=O)O)C1CC1; Hyp = O=C(O)[C@@H]1C[C@@H](O)CN1; NMeChg = CN[C@H](C(=O)O)C1CCCCC1; NMeI = CC[C@H](C)[C@H](NC)C(=O)O; N(CH2CH2)2CF2 = FC1(F)CCN(*)CC1; NMeD = CN[C@@H](CC(=O)O)C(=O)O; NMeL = CN[C@@H](CC(C)C)C(=O)O; NMeV = CN[C@H](C(=O)O)C(C)C; d(β3hA) = C[C@@H](N)CC(=O)O; dNMeS = CN[C@H](CO)C(=O)O; Morpholide = C1CN(*)CCO1; NMeA = CN[C@@H](C)C(=O)O; NMeAib = CNC(C)(C)C(=O)O; Piperidide = C1CCN(*)CC1; Pyrrolidide = C1CCN(*)C1; dNMeA = CN[C@H](C)C(=O)O; Ac5c = NC1(C(=O)O)CCCC1; Aze = O=C(O)[C@@H]1CCN1; Sar = CNCC(=O)O

In the experiment the target is T1, Kras and SOS1 (biotin-tagged human Kras loaded with GDP, His-tagged human SOS1) (Homo sapiens, UniProt P01116, G12D).
T1 construct: made in house; host or cells: E. coli (stated for Kras only)
T1 sequence (P01116 1-188 isoform P01116-2 G12D): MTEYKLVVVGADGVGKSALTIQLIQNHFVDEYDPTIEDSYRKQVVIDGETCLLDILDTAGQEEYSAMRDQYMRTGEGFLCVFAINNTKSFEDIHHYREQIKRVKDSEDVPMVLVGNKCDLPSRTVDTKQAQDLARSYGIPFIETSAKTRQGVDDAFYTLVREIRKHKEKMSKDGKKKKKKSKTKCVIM
Put plainly: Protein-protein interaction inhibition between Kras and SOS1 (KrasGl2D-SOS PPI) using AlphaScreen. It is filed as binding. As to conditions: AlphaScreen; biotin-tagged human Kras loaded with GDP, His-tagged human SOS1; read-out: KRAS G12D-SOS PPI IC50. The method, boiled down: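 Binding between SOS1 and Kras is detected as bead-proximity luminescence: illuminate Ni-conjugated donors (680 nm), collect 520-620 nm emission from streptavidin-conjugated acceptors; Kras carries biotin and GDP loaded after purification, SOS1 carries a His tag.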
Regarding `CCO[C@@H]1C[C@H]2C(=O)NC3(CCCC3)C(=O)N(C)[C@@H]([C@@H](C)CC)C(=O)N(C)[C@H](C(=O)N3CCOCC3)CC(=O)N(C)[C@@H](CC(C)C)C(=O)N[C@@H]([C@@H](C)CC)C(=O)N(C)[C@@H](C)C(=O)N3CC[C@H]3C(=O)N(C)[C@@H](Cc3ccc(C(F)(F)F)cc3)C(=O)N(C)CC(=O)N[C@@H](CCc3ccc(C(F)(F)F)c(Cl)c3)C(=O)N2C1` [Compound 1330] ([NMeL]I[NMeA][Aze][NMePhe(4-CF3)][Sar][hPhe(3-Cl-4-CF3)][Hyp](Et)[Ac5c][NMeI][NMeD]-Morpholide; lactam N-11), the IC50 came out at 0.62 nM. For `CC[C@H](C)[C@@H]1NC(=O)[C@H](CC(C)C)N(C)C(=O)C[C@@H](C(=O)N2CCCCC2)N(C)C(=O)[C@H](C(C)C)N(C)C(=O)[C@H](C)NC(=O)[C@H](CC(=O)N2CCC(F)(F)CC2)N(C)C(=O)[C@H](CCc2ccc(C(F)(F)F)c(Cl)c2)NC(=O)CN(C)C(=O)[C@H](CC2CCCCC2)N(C)C(=O)CN(C)C(=O)CN(C)C1=O` [Compound 444] ([NMeL]I[Sar][Sar][NMeCha][Sar][hPhe(3-Cl-4-CF3)][NMeD](N(CH2CH2)2CF2)A[NMeV][NMeD]-Piperidide; lactam N-11) the value was 18 nM; for `CC[C@H](C)[C@@H]1NC(=O)[C@H](CC(C)C)N(C)C(=O)C[C@@H](C(=O)N2CCCCC2)N(C)C(=O)[C@H](CC(C)C)NC(=O)C(C)(C)N(C)C(=O)[C@H](Cc2ccccc2Cl)NC(=O)[C@H](Cc2cccc(I)c2)NC(=O)CN(C)C(=O)[C@H](Cc2ccc(C)cc2)N(C)C(=O)CN(C)C(=O)CN(C)C1=O` [Compound 706] ([NMeL]I[Sar][Sar][NMePhe(4-Me)][Sar][Phe(3-I)][Phe(2-Cl)][NMeAib]L[NMeD]-Piperidide; lactam N-11), 66 nM. In the case of `CC[C@H](C)[C@@H]1NC(=O)[C@H](CC(F)(F)F)N(C)C(=O)C[C@@H](C(=O)N2CCCC2)N(C)C(=O)[C@H](C2CCCCC2)N(C)C(=O)C2(CCCC2)NC(=O)[C@@H]2CC(F)(F)CN2C(=O)[C@H](CCc2ccc(C(F)(F)F)c(Cl)c2)NC(=O)CN(C)C(=O)[C@H](Cc2ccc(C)cc2)N(C)C(=O)CN(C)C(=O)CN(C)C1=O` [Compound 1245] ([NMeAbu(4,4,4-F3)]I[Sar][Sar][NMePhe(4-Me)][Sar][hPhe(3-Cl-4-CF3)][Pro(4,4-F2)][Ac5c][NMeChg][NMeD]-Pyrrolidide; lactam N-11) it was 0.54 nM; in that of `CC[C@H](C)[C@@H]1NC(=O)[C@H](C)N(C)C(=O)C[C@@H](C)NC(=O)[C@H](C2CCCC2)N(C)C(=O)C2(CCCC2)NC(=O)[C@@H]2CCCN2C(=O)[C@H](CCc2ccc(C(F)(F)F)c(Cl)c2)NC(=O)[C@@H](C)N(C)C(=O)[C@H](Cc2ccccc2Cl)N(C)C(=O)CN(C)C(=O)CN(C)C1=O` [Compound 539] (cyclo([Ac5c][NMeGly(cPent)][d(β3hA)][NMeA]I[Sar][Sar][NMePhe(2-Cl)][dNMeA][hPhe(3-Cl-4-CF3)]P)), 190 nM; in that of `CC[C@H](C)[C@@H]1NC(=O)[C@H](CC(C)C)N(C)C(=O)C[C@@H](C(=O)N2CCCCC2)N(C)C(=O)[C@H](C2CC2)N(C)C(=O)C2(CCCC2)NC(=O)[C@@H]2CCCN2C(=O)[C@H](CCc2ccc(C(F)(F)F)c(Cl)c2)NC(=O)CN(C)C(=O)[C@H](CC2CCCCC2)N(C)C(=O)CN(C)C(=O)CN(C)C1=O` [Compound 197] ([NMeL]I[Sar][Sar][NMeCha][Sar][hPhe(3-Cl-4-CF3)]P[Ac5c][NMeGly(cPr)][NMeD]-Piperidide; lactam N-11), 6.8 nM. For `CC[C@H](C)[C@@H]1NC(=O)[C@H](CC(C)C)N(C)C(=O)C[C@@H](C)NC(=O)[C@H](C2CCCC2)N(C)C(=O)C2(CCCC2)NC(=O)[C@@H](C)NC(=O)[C@H](CCc2ccc(C(F)(F)F)c(Cl)c2)NC(=O)CN(C)C(=O)[C@H](Cc2ccc(C)cc2)N(C)C(=O)[C@@H]2CCN2C(=O)[C@H](C)N(C)C1=O` [Compound 1328] (cyclo([Ac5c][NMeGly(cPent)][d(β3hA)][NMeL]I[NMeA][Aze][NMePhe(4-Me)][Sar][hPhe(3-Cl-4-CF3)][dA])) the value was 220 nM; for `CC[C@H](C)[C@@H]1NC(=O)[C@H](CC(C)C)N(C)C(=O)C[C@@H](C(=O)N2CCCCC2)N(C)C(=O)[C@H](C(C)C)N(C)C(=O)C2(CCCC2)NC(=O)[C@@H](CO)N(C)C(=O)[C@H](CCc2ccc(C(F)(F)F)c(Cl)c2)NC(=O)CN(C)C(=O)[C@H](CC2CCCCC2)N(C)C(=O)[C@@H]2CCN2C(=O)[C@H](C)N(C)C1=O` [Compound 1444] ([NMeL]I[NMeA][Aze][NMeCha][Sar][hPhe(3-Cl-4-CF3)][dNMeS][Ac5c][NMeV][NMeD]-Piperidide; lactam N-11), 8.8 nM. `CC[C@H](C)[C@@H]1NC(=O)[C@H](CC(C)C)N(C)C(=O)C[C@@H](C(=O)N2CCCCC2)N(C)C(=O)[C@H](C2CCCCC2)N(C)C(=O)C2(CCCC2)NC(=O)[C@H](Cc2ccc(OC)nc2)N(C)C(=O)[C@H](CCc2ccc(C(F)(F)F)c(Cl)c2)NC(=O)CN(C)C(=O)[C@H](CC2CCCCC2)N(C)C(=O)[C@@H]2CCN2C(=O)CN(C)C1=O` [Compound 614] ([NMeL]I[Sar][Aze][NMeCha][Sar][hPhe(3-Cl-4-CF3)][X39][Ac5c][NMeChg][NMeD]-Piperidide; lactam N-11): the IC50 came out at 24 nM.
